In assay [1] the test system is 409B2 hiPSC (iCRISPR Cas9, FRMD7 editing). Description: cell survival relative to solvent control (fold (ratio to mock)); higher = more surviving cells. As for the experimental part:
(§1)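 Subset screen of 55 drugs tested at 5 concentrations around the effective screening dose, in 409B2 iCRISPR Cas9 hiPSCs editing FRMD7 with a ssDNA donor. Drugs were applied for 24 h. Viability was read by resazurin and editing outcomes by amplicon sequencing (HDR, NHEJ <2 bp microhomology, MMEJ ≥2 bp microhomology). Values are relative to solvent mock controls; two biological replicates.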

The test system is the same in assay [2]. Put plainly: NHEJ-attributed indel frequency relative to solvent control (fold (ratio to mock)); higher = more NHEJ outcomes. As for the experimental part:
as §1

The test system is the same in assay [3]. Description: MMEJ-attributed deletion frequency relative to solvent control (fold (ratio to mock)); higher = more MMEJ outcomes. Here is the method: as §1
Assay [4] shares this test system. Put plainly: HDR (precise edit) frequency relative to solvent control (fold (ratio to mock)); higher = more homology-directed repair outcomes. As for the experimental part: as §1

Where a name gives a salt, the structure may show the parent alone. ± gives the standard deviation of the averaged measurements.

On to `CS(=O)(=O)N1CCN(Cc2cc3nc(-c4cccc5[nH]ncc45)nc(N4CCOCC4)c3s2)CC1` [GDC-0941] (in DMSO), for which the cell survival in assay [1] (20 nM) worked out at 0.924; in assay [1] (50 nM), 0.877; in assay [1] (100 nM), 0.7; in assay [1] (200 nM), 0.444; in assay [1] (500 nM), 0.15. Besides, the NHEJ-attributed indel frequency worked out at 0.978 ± 0.0067 in assay [2] (20 nM); 0.99142 ± 0.00057 in assay [2] (50 nM); 0.945 ± 0.042 in assay [2] (100 nM); 0.94 ± 0.041 in assay [2] (200 nM); 0.86 ± 0.063 in assay [2] (500 nM). The MMEJ-attributed deletion frequency in assay [3] (20 nM) amounted to 1.02 ± 0.14; in assay [3] (50 nM) it was 0.875 ± 0.054; in assay [3] (100 nM), 0.874 ± 0.016; in assay [3] (200 nM) it was 0.926 ± 0.2; in assay [3] (500 nM) it was 0.887 ± 0.078. Besides, the HDR in assay [4] (20 nM) amounted to 1.15 ± 0.048; in assay [4] (50 nM) it was 1.08 ± 0.0031; in assay [4] (100 nM) it was 1.08 ± 0.075; in assay [4] (200 nM), 1.14 ± 0.076; in assay [4] (500 nM), 1.06 ± 0.19.

For `CC(=O)O[C@]1(C(C)=O)CC[C@H]2[C@@H]3C=C(Cl)C4=CC(=O)[C@@H]5C[C@@H]5[C@]4(C)[C@H]3CC[C@@]21C` [Cyproterone Acetate] (in DMSO), the cell survival in assay [1] (20 nM) was found to be 0.984; in assay [1] (50 nM), 1.23; in assay [1] (100 nM) it was 1.12; in assay [1] (200 nM), 1.09; in assay [1] (500 nM) it was 1.23. The NHEJ-attributed indel frequency in assay [2] (20 nM) was 0.962 ± 0.045; in assay [2] (50 nM), 0.9767 ± 0.0039; in assay [2] (100 nM) it was 0.9929 ± 0.0094; in assay [2] (200 nM) it was 1.01 ± 0.014; in assay [2] (500 nM), 0.964 ± 0.042. Besides, the MMEJ-attributed deletion frequency amounted to 1.18 ± 0.11 in assay [3] (20 nM); 0.986 ± 0.03 in assay [3] (50 nM); 0.9921 ± 0.0047 in assay [3] (100 nM); 0.915 ± 0.022 in assay [3] (200 nM); 0.999 ± 0.017 in assay [3] (500 nM). Moreover, the HDR in assay [4] (20 nM) was 1.1 ± 0.048; in assay [4] (50 nM), 1.119 ± 0.007; in assay [4] (100 nM), 1.09 ± 0.054; in assay [4] (200 nM), 1.03 ± 0.013; in assay [4] (500 nM), 1.14 ± 0.058.

Take `O=C1NC(=O)[C@@H](c2cn3c4c(cccc24)CCC3)[C@@H]1c1c[nH]c2ccccc12` [Tivantinib (ARQ 197)] (in DMSO): the cell survival worked out at 0.979 in assay [1] (200 nM); 1.04 in assay [1] (500 nM); 0.271 in assay [1] (1000 nM); 0.0426 in assay [1] (2000 nM); 0.0118 in assay [1] (5000 nM). For the same compound, the NHEJ-attributed indel frequency in assay [2] (200 nM) turned out to be 0.949 ± 0.045; in assay [2] (500 nM), 1.01 ± 0.025; in assay [2] (1000 nM) it was 1.115 ± 0.0054; in assay [2] (2000 nM), 1 ± 0.05; in assay [2] (5000 nM) it was 0.532 ± 0.069. Besides, the MMEJ-attributed deletion frequency was 0.915 ± 0.074 in assay [3] (200 nM); 0.98 ± 0.025 in assay [3] (500 nM); 1 ± 0.088 in assay [3] (1000 nM); 1.48 ± 0.36 in assay [3] (2000 nM); 0.786 ± 0.051 in assay [3] (5000 nM). In addition, the HDR came to 1.01 ± 0.089 in assay [4] (200 nM); 1.05 ± 0.015 in assay [4] (500 nM); 0.897 ± 0.1 in assay [4] (1000 nM); 0.507 ± 0.081 in assay [4] (2000 nM); 0.281 ± 0.0069 in assay [4] (5000 nM).

With `CN(C)C(=O)C(CCN1CCC(O)(c2ccc(Cl)cc2)CC1)(c1ccccc1)c1ccccc1` [Loperamide HCl] (in DMSO), the cell survival in assay [1] (2000 nM) is 0.928; in assay [1] (5000 nM), 1.24; in assay [1] (10000 nM), 0.607; in assay [1] (20000 nM) it was -0.00906; in assay [1] (50000 nM) it was -0.00864. Besides, the NHEJ-attributed indel frequency in assay [2] (2000 nM) turned out to be 0.923 ± 0.077; in assay [2] (5000 nM) it was 0.9735 ± 0.0074; in assay [2] (10000 nM), 0.928 ± 0.06; in assay [2] (20000 nM), 0.324 ± 0.053; in assay [2] (50000 nM), 0.186 ± 0.085. Further, the MMEJ-attributed deletion frequency in assay [3] (2000 nM) was found to be 1.31 ± 0.23; in assay [3] (5000 nM), 1.1 ± 0.094; in assay [3] (10000 nM), 0.998 ± 0.032; in assay [3] (20000 nM), 0.465 ± 0.16; in assay [3] (50000 nM), 0.224 ± 0.07. Also, the HDR was determined as 0.9969 ± 0.0053 in assay [4] (2000 nM); 1.01 ± 0.044 in assay [4] (5000 nM); 0.873 ± 0.035 in assay [4] (10000 nM); 0.136 ± 0.067 in assay [4] (20000 nM); 0.138 ± 0.11 in assay [4] (50000 nM).

For `Nc1c(CC(=O)O)cccc1C(=O)c1ccc(Br)cc1` [Bromfenac Sodium] (in DMSO), the cell survival in assay [1] (200 nM) worked out at 1.06; in assay [1] (500 nM), 1.2; in assay [1] (1000 nM) it was 0.983; in assay [1] (2000 nM) it was 1.04; in assay [1] (5000 nM), 1.09. Also, the NHEJ-attributed indel frequency in assay [2] (200 nM) was determined as 0.984 ± 0.026; in assay [2] (500 nM), 0.957 ± 0.032; in assay [2] (1000 nM), 0.984 ± 0.016; in assay [2] (2000 nM), 1.02 ± 0.022; in assay [2] (5000 nM), 0.975 ± 0.044. Moreover, the MMEJ-attributed deletion frequency in assay [3] (200 nM) worked out at 0.866 ± 0.12; in assay [3] (500 nM), 0.944 ± 0.072; in assay [3] (1000 nM), 0.811 ± 0.094; in assay [3] (2000 nM), 0.89 ± 0.033; in assay [3] (5000 nM), 0.976 ± 0.09. Also, the HDR in assay [4] (200 nM) turned out to be 1.09 ± 0.065; in assay [4] (500 nM), 1.09 ± 0.07; in assay [4] (1000 nM), 1.11 ± 0.058; in assay [4] (2000 nM), 1.05 ± 0.025; in assay [4] (5000 nM), 1.11 ± 0.053.

For `O=C(c1cc(Cc2n[nH]c(=O)c3ccccc23)ccc1F)N1CCN(C(=O)C2CC2)CC1` (in DMSO), the cell survival in assay [1] (200 nM) was found to be 0.395; in assay [1] (500 nM), 0.388; in assay [1] (1000 nM) it was 0.217; in assay [1] (2000 nM), 0.106; in assay [1] (5000 nM), 0.0246. Besides, the NHEJ-attributed indel frequency in assay [2] (200 nM) is 0.814 ± 0.042; in assay [2] (500 nM) it was 0.78 ± 0.042; in assay [2] (1000 nM), 0.698 ± 0.076; in assay [2] (2000 nM), 0.6123 ± 0.0021; in assay [2] (5000 nM) it was 0.513 ± 0.04. Further, the MMEJ-attributed deletion frequency in assay [3] (200 nM) worked out at 0.9 ± 0.073; in assay [3] (500 nM) it was 0.64 ± 0.079; in assay [3] (1000 nM), 0.705 ± 0.18; in assay [3] (2000 nM), 0.614 ± 0.013; in assay [3] (5000 nM), 0.746 ± 0.11. Besides, the HDR in assay [4] (200 nM) was 1.28 ± 0.18; in assay [4] (500 nM) it was 1.18 ± 0.16; in assay [4] (1000 nM), 1.341 ± 0.0076; in assay [4] (2000 nM) it was 1.03 ± 0.017; in assay [4] (5000 nM) it was 0.432 ± 0.03.

The record behind these values is the supplement of paper PMC12698765.
